Test results published in paper PMC6848912 (British Journal of Clinical Pharmacology, 2019).

Assays:
[1] = in combination with carboplatin + paclitaxel; cited from earlier work
[2] = Inc. data on file, cited from earlier work
[3] = cited from earlier work
[4] = Population pharmacokinetic analysis; type: in vivo
[5] = concurrent administration of carboplatin + paclitaxel
[6] = nonparametric bootstrap of final PPK model

NS(=O)(=O)OC[C@@H]1C[C@@H](n2ccc3c(N[C@H]4CCc5ccccc54)ncnc32)C[C@@H]1O [pevonedistat, Pevonedistat]
maximum tolerated dose (MTD) / recommended Phase II dose [1]: 20 mg/m^2 | renal clearance contribution to total systemic clearance ([2]; ref Millennium Pharmaceuticals): < 5% | renal elimination pathway, share of total plasma clearance ([2]; ref Takeda Millennium Pharmaceuticals): 2.5% | dose linearity of PK (AUC from time 0 to 24 hours vs dose) ([3]; dose from 25 to 278 mg/m^2): linear | drug accumulation ([3]; once-daily dosing for 5 consecutive days or intermittent dosing): little or no notable drug accumulation | average increase in pevonedistat exposure (AUC) [4, 5]: 79% | average increase in pevonedistat exposure (AUC), fold [4, 5]: 1.79 fold | impact of race, sex, age, tumour type, mild or moderate renal impairment (CrCL ≥30 mL/min), mild hepatic impairment on pevonedistat PK ([4]; covariate analysis): had no impact on pevonedistat PK | IIV_CL (interindividual variability), typical value ([4]; final PPK model): 36.6 %CV | IIV_Q, typical value ([4]; final PPK model): 60.5 %CV | IIV_Vc, typical value ([4]; final PPK model): 36.6 %CV | IIV_Vp, typical value ([4]; final PPK model): 36.9 %CV | Albumin on Q (exponent), typical value ([4]; final PPK model, (ALB/40)^θ13): 1.45 | BSA on Q (exponent), typical value ([4]; final PPK model, set the same as BSA on CL): 1.33 | BSA on Vp (exponent), typical value ([4]; final PPK model, set the same as BSA on Vc): 1.39 | BSA on Vc (exponent), typical value ([4]; final PPK model, set the same as BSA on Vp): 1.39 | Vd ([4]; human, plasma, intravenous): 117 L | Albumin on Q, bootstrap median [4, 6]: 1.45 | BSA on Q, bootstrap median [4, 6]: 1.33 | BSA on Vc, bootstrap median [4, 6]: 1.39 | BSA on Vp, bootstrap median [4, 6]: 1.39 | IIV_CL, bootstrap median [4, 6]: 35.9 %CV | IIV_Q, bootstrap median [4, 6]: 60.2 %CV | IIV_Vc, bootstrap median [4, 6]: 36.6 %CV | IIV_Vp, bootstrap median [4, 6]: 36.7 %CV | Q, bootstrap median [4, 6]: 22 L/h | Vc, bootstrap median [4, 6]: 115 L | Vp, bootstrap median [4, 6]: 121 L
